Source: patent US20220323410A1, “OXYTOCIN ANTAGONIST DOSING REGIMENS FOR PROMOTING EMBRYO IMPLANTATION AND PREVENTING MISCARRIAGE” (ObsEva S.A., priority 2019, published 2022)

Experiments:
CYP2D6 = CYP2D6 (Homo sapiens, UniProt P10635); assay: Metabolism by CYP2D6 isoform; format: in vitro ADME; details: substantially pure (3E) diastereomer; also CYP2C19
Method: (§1) At five time points over the course of a 45 minute experiment, the compounds were analyzed by LC-MS/MS. The percentage of each compound remaining at each time point, along with the metabolic half-lives of each compound in the presence of each cytochrome P450 isoform, are indicated in Tables 10-12, below.

[1] = crystal form with XRPD peaks of Table 1; cited from earlier work
[2] = tested on: subjects undergoing embryo transfer; assay: Pregnancy and live birth rates, clinical study in subjects undergoing embryo transfer; format: in vivo, human; details: post hoc, pre-dose serum P4 quartiles 1-3; significant dose-dependent fashion (p<0.02)
Method: From one to two embryos of good quality were transferred to each subject. To reduce uterine contractions at the time of embryo transfer, soft or ultra-soft catheters were used and contact with the uterine fundus was avoided. Any difficulties that occurred during the embryo transfer procedure were recorded, including instances in which uterine sounding or cervical dilation were required, instances in which a harder catheter was required, or instances in which blood was found in any part of the catheter.
Approximately 1 hour following embryo transfer, subjects underwent a final physical examination and were subsequently discharged from the clinical unit until the first follow-up visit, which occurred at about 14 days following oocyte retrieval (OPU+14 days). At this time, subjects underwent a physical examination as well as a blood sample analysis to assess pregnancy by detection of hCG. […] Pregnancy status was monitored by detecting embryo heartbeat. […]
Positive blood pregnancy test at 14 days following oocyte retrieval and positive embryo heartbeat at 10 weeks following oocyte retrieval were assessed in the same manner as described above. Change from baseline to the time of embryo transfer in uterine contraction rate was analyzed by the Wilcoxon Rank Sum Test by comparing the uterine contraction rate associated with each dose to that observed with placebo-treated subjects.

[3] = tested on: endometrial RNA transcript expression; assay: Endometrial RNA transcript expression by RNA-Seq in healthy female volunteers; format: in vivo, human; details: 900 mg
Method: (§2) Particularly, subjects were pre-treated with estradiol valerate at a dosage of 2 mg administered 3 times per day (TID) for 16 days. Administration of estradiol valerate was followed by vaginal progesterone at a dosage of 200 mg administered TID.
(§3) These assessments included measurements of uterine contractions by ultrasound and uterine perfusion by a 3D-power Doppler technique.
(§4) Mean and median changes in uterine contraction frequency and endometrial vascularity indices (particularly, endometrial flow index (FI), vascularity index (VI), and vascularity flow index (VFI)) were calculated. […] Differences in endometrial mRNA expression were identified and assessed for statistical significance.
Using an RNA-Seq assay, each subject's expression of a variety of genes, including DPP4, CNTNAP3, CNTN4, CXCL12, TNXB, CTSE, OLFM4, KRT5, KRT6A, and IDO2, was then assessed to determine whether the expression of each gene increased, decreased, or underwent no significant change due to administration of the compound or placebo.

[4] = tested on: endometrial blood flow in human subjects; assay: Endometrial blood flow in human subjects (Example 4); details: in vivo
Source text: Values along the y-axis represent endometrial flow index (FI), a parameter that is proportional to the volumetric quantity of blood that circulates through the endometrium in a given period of time.
Values along the y-axis represent endometrial vascularity index (VI), a parameter that is proportional to the total quantity of blood vessels in a subject's endometrium.
Values along the y-axis represent vascularity flow index (VFI), a parameter that is proportional to the total quantity of blood that circulates through a given volume of a subject's endometrium.

[5] = tested on: female human subjects undergoing embryo transfer therapy; assay: Clinical studies of embryo implantation in subjects undergoing embryo transfer therapy (Example 1); format: in vivo
Source text: (§5) A total of 247 female subjects were selected for treatment based on a variety of inclusion criteria. Of these, 244 subjects completed the study. The study was open to healthy female volunteers from 18 to 36 years of age that had previously undergone up to one IVF or ICSI cycle that resulting in a negative pregnancy test as assessed by hCG detection, despite the transfer of at least one embryo of good quality, which was defined as an embryo having from six to eight blastomeres of uniform size and shape on the day of embryo transfer, ooplasm having no granularity, absence of multinucleation, and a maximum fragmentation of 10%. Subjects included in the study had at least one functional ovary and were capable of communicating with the investigator and research staff and complying with the requirements of the study protocol. Data are presented in the form of mean (standard deviation).
Subjects included in the study underwent an initial screening period beginning up to 12 weeks prior to the day of oocyte retrieval from the subject. During this 12-week period, subjects underwent physical and gynecological examination in preparation for oocyte retrieval. […]
(§6) The embryo transfer procedure was conducted three days after the oocyte retrieval day (OPU+3 days). Subjects undergoing embryo transfer were monitored prior to initiating the procedure. […]

CYP3A4 = CYP3A4 (Homo sapiens, UniProt P08684); assay: Metabolism by CYP3A4 isoform; format: in vitro ADME; details: substantially pure compound (II)
CYP3A4, sequence (P08684 whole entry, canonical isoform): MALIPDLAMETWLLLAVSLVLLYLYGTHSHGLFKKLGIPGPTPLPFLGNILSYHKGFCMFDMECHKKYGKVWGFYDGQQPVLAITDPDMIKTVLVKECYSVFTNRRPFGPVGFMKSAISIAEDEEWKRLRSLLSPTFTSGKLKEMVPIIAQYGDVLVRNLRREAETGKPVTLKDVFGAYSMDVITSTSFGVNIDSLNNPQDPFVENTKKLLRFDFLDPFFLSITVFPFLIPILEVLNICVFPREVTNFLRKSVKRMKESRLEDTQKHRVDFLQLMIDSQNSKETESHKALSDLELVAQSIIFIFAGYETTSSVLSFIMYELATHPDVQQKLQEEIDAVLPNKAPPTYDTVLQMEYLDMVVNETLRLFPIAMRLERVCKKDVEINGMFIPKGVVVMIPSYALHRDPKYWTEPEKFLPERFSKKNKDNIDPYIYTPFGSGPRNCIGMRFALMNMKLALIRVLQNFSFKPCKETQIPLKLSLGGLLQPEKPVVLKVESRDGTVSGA
Method: as §1

[6] = Concentration of compound (II) after single oral dose in healthy female volunteers; format: in vivo, human; details: oral administration of either the 900 mg or the 1,800 mg dose; FIG. 6
Method: as §2

[7] = tested on: spontaneous uterine contractions; details: cited from earlier work
[8] = Phase 2 clinical study of Example 1: serum level of compound (II) at embryo transfer; format: in vivo; details: female, human, mean
Source text: as §5
Subjects included in the study underwent an initial screening period beginning up to 12 weeks prior to the day of oocyte retrieval from the subject. During this 12-week period, subjects underwent physical and gynecological examination in preparation for oocyte retrieval. This analysis included a recordation of the subjects' vital signs, hematology and biochemistry analysis of blood samples withdrawn from the subjects, urinary analysis, and a comprehensive review of the subjects' medical histories.
At the conclusion of the screening period, subjects underwent controlled ovarian hyperstimulation by administration of a GnRH antagonist so as to prevent a premature rise in serum LH concentration. Concurrent pre-treatment with an oral contraceptive prior to controlled ovarian hyperstimulation was allowed, but not required. Final follicular maturation was performed with a single administration of hCG to the subject. […]
as §6

[9] = tested on: uterine contractions in human subjects; assay: Uterine contractility in human subjects (Example 4); details: in vivo
Source text: Values along the y-axis represent the quantity of uterine contractions (UC) per minute.

uterine contractions = assay: Uterine contractions by ultrasound in healthy female volunteers; format: in vivo, human; details: 1,800 mg dose
Method: as §2, §3, §4

endometrial perfusion = assay: Uterine perfusion by 3D-power Doppler in healthy female volunteers; format: in vivo, human; details: baseline to 24 hours; both 900 mg and 1,800 mg doses
Method: as §2, §3, §4

CYP2D6, sequence (P10635 whole entry, canonical isoform): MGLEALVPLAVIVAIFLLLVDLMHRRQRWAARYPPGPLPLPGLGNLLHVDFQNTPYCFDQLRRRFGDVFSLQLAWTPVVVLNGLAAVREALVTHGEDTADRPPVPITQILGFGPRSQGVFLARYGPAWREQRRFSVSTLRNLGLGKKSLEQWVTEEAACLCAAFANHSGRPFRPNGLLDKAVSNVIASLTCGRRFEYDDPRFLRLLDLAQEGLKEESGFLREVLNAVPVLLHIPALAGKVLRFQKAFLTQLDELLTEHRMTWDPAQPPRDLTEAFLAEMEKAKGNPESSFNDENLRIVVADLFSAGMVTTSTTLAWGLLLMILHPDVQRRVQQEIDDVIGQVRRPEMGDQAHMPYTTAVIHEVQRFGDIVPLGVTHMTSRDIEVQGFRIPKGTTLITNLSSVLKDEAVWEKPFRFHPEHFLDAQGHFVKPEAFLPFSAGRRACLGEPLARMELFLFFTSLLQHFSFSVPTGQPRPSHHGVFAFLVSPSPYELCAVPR

## CO/N=C1\C[C@@H](CO)N(C(=O)c2ccc(-c3ccccc3C)cc2)C1 [(3E) isomer, (3E,5S)-5-(hydroxymethyl)-1-[(2′-methyl-1,1′-biphenyl-4-yl)carbonyl]pyrrolidin-3-one O-methyloxime]
CYP2D6
  Preferential metabolism by cytochrome P450 isoform: preferentially metabolized by cytochrome P450 isoforms 2D6 (CYP2D6) and 2C19 (CYP2C19)

## CO/N=C1/C[C@@H](CO)N(C(=O)c2ccc(-c3ccccc3C)cc2)C1 [crystal form of compound (II), (3Z,5S)-5-(hydroxymethyl)-1-[(2′-methyl-1,1′-biphenyl-4-yl)carbonyl]pyrrolidin-3-one O-methyloxime]
[1]
  stability to aqueous media and physical stress: enhanced stability to aqueous media and physical stress

## CO/N=C1/C[C@@H](CO)N(C(=O)c2ccc(-c3ccccc3C)cc2)C1 [compound (II), (3Z,5S)-5-(hydroxymethyl)-1-[(2′-methyl-1,1′-biphenyl-4-yl)carbonyl]pyrrolidin-3-one O-methyloxime]
[2]
  Pregnancy and live-birth rates versus placebo group: overall increase in pregnancy and live-birth rates in the treatment arms versus the placebo group
[3]
  mRNA expression in endometrial biopsy tissue compared to placebo: No differences in mRNA expression
[4]
  flow of blood to the endometrium: augment the flow of blood to the endometrium
[5]; dose-dependent, particularly strong at pre-treatment serum P4 below 320 nM
  successful embryo implantation rate: improve successful embryo implantation rate
[5]; human subjects that previously underwent ovarian hyperstimulation and oocyte retrieval
  risk of embryo implantation failure: reduce the risk of embryo implantation failure
CYP3A4
  Preferential metabolism by cytochrome P450 isoform: preferentially metabolized by cytochrome P450 isoform 3A4 (CYP3A4)
[6]
  Time at which maximum concentration is reached: about 4 hours
[7]; 10, 30, and 60 mg/kg, anesthetized late-term pregnant rats
  Reduction in spontaneous uterine contractions: dose-dependent reduction in spontaneous uterine contractions
[7]; same vehicle, same model organism
  Inhibitory activity with respect to uterine contraction versus (3E) diastereomer: markedly higher than that of the substantially pure (3E) diastereomer
[8]; 100 mg oral dose about 4 hours prior to embryo transfer, n = 62
  concentration at 4 hours: 484 ng/mL
[8]; 300 mg oral dose about 4 hours prior to embryo transfer, n = 60
  concentration at 4 hours: 1450 ng/mL
[8]; 900 mg oral dose about 4 hours prior to embryo transfer, n = 60
  concentration at 4 hours: 4160 ng/mL
[9]
  uterine contractility: reduce uterine contractility
Uterine contractions; p=0.0121
  Proportion of subjects showing less than one uterine contraction per minute versus placebo: significance was seen at the 8-hour time point
Uterine contractions; p=0.0923 at 4 hours, p=0.0081 at 8 hours
  Number of uterine contractions per minute versus placebo: contraction-reducing effects were observed from the 4-hour time point onwards
Endometrial perfusion
  Endometrial perfusion parameters, median values: marked and sustained increases in median values
